Consider 17 molecules from patent US20240166681A1, “3'3' CYCLIC DINUCLEOTIDES CONTAINING ISONUCLEOTIDIC UNITS” (INSTITUTE OF ORGANIC CHEMISTRY AND BIOCHEMISTRY AS CR, V. …, priority 2021, published 2024).

Structures are written as SMILES. Where two headings read alike, the source gives them in different places.

For assay [1], the target named is WT STING (Homo sapiens, UniProt Q86WV6, H232R). In words: 293T WT STING standard reporter assay. The assay is classed as cell-based. Also on record: host or cells: 293T (ATCC CRL-3216), stably transfected. As to conditions: 293T wtSTING-FL cells, no digitonin, 7 h incubation, luciferase reporter. How it is done: After 5 minutes incubation at room temperature (RT), 250 μL of the mixture was added dropwise to the cells in one well. Cells were incubated 36 hours at 37° C. with 5% CO2, and then detached with 0.05% Trypsin and 0.22 g/L EDTA (both cat. #L0941, Biowest, Riverside, USA).
Sequence of WT STING (Q86WV6 whole entry H232R): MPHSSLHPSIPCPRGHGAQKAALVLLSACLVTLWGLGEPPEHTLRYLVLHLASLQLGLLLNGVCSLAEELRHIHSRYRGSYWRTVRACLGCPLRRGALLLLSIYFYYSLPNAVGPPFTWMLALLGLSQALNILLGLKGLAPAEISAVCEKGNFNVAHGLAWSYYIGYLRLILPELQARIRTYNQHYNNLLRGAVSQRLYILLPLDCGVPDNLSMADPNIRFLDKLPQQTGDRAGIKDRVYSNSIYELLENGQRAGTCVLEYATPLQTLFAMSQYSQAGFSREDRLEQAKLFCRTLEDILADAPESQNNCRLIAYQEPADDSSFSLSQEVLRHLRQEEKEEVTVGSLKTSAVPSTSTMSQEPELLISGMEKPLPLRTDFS
Transfected cells were seeded onto poly-D-lysine coated six well plates at density 50,000 cells per 1 cm^2 in DMEM medium with high glucose containing 10% heat inactivated FBS, 30 μg/mL blasticidin (cat. #ant-b1-05, InvivoGen, San Diego, USA), 0.06 mg/ml Penicillin G and 0.1 mg/ml Streptomycin Sulfate (both cat. #. L0018, Biowest, Riverside, USA). The medium was replenished every 3-4 days until visible colonies of cells resistant to blasticidin were formed.
Blasticidin resistant cells stably expressing WT STING were further transfected with […] plasmid following the same procedure as described above. […] Homogeneous culture of stably double transfected cells was prepared by limiting dilution of cells in 96 well plates and wells with cells were selected that originated from a single cell.
The medium was removed next day and three-fold serial dilutions of compounds in 100 μl medium were added to the cells. The plates with cells were incubated for 7 hours at 37° C. with 5% CO2. After 50 μl of the medium was removed, 30 μl of ONE-Glo™ Luciferase Assay System reagent (cat. #E6120, Promega, Madison, USA) was added to each well and luminescence was read on Synergy H1 (Biotek, Winooski, USA). […] (cat. #tlrl-nacga23), and 2′2′-cGAMP (cat. #tlrl-nacga22) were purchased from Invivogen (San Diego, USA).
A general note: In a reporter assay the amount or activity of a reporter protein is the signal.

The subject of assay [2] is peripheral blood mononuclear cell (PBMC). The assay can be described thus: Peripheral blood mononuclear cell assay (cytokine levels). It counts as cell-based. Conditions: 1 h with compound, wash, 15 h, average of at least two donors. The procedure:
Selected compounds were tested in an in vitro peripheral blood mononuclear cell (PBMC) assay. Freshly isolated PBMCs were seeded into U-shaped shaped 96-well plates at desity 500,000 cells per well in 50 μl of RPMI 1640 medium supplemented with 10% heat inactivated FBS. Serially dilluted tested compounds were added to wells in 50 μl of cultivation medium and cell were incubated with compounds for 1 h at 37° C. with 5% CO2. Plates with cells were then spun 500 g for 5 minutes and medium was removed. Cells were washed twice with the cell culture medium by the use of centrifugation and gently resuspended in 100 μl medium without compounds. After 15 hour incubation at 37° C. with 5% CO2, the cell culture medium was collected and the levels of interferon-alpha (INF-α), interferon-gamma (INF-γ) and tumor necrosis factor-alpha (TNF-α) were determined with ProcartaPlex Assays (ThermoFisher, Waltham, USA) and MAGPIX System (Merck KGaA, Darmstadt, Germany). GraphPad Prism (San Diego, CA, USA) was used to calculate the 50% effective concentration (EC50) from a 6-point dose-response curve. Values reported are an average of runs from at least two donors.

For `CCCCCCCC(=O)OCOP1(=O)OC[C@H]2OC[C@@H](n3cnc4c(N)ncnc43)[C@@H]2OP(=O)(OCOC(=O)CCCCCCC)OC[C@H]2O[C@@H](n3cnc4c(N)ncnc43)[C@H](F)[C@@H]2O1` (single isomer, unassigned) [Compound 58c], the EC50 (as a rule, the midpoint of the concentration-response curve) in assay [1] worked out at 2 nM.
For `CC(C)(C)C(=O)OCOP1(=O)OC[C@H]2OC[C@@H](n3cnc4c(N)ncnc43)[C@@H]2OP(=O)(OCOC(=O)C(C)(C)C)OC[C@H]2O[C@@H](n3cnc4c(N)ncnc43)[C@H](F)[C@@H]2O1` (single isomer, unassigned) [Compound 36a], the concentration giving a half-maximal response (EC50) in assay [1] came out at 88 nM.
With `CCC(C)(C)C(=O)OCOP1(=O)OC[C@H]2OC[C@@H](n3cnc4c(N)ncnc43)[C@@H]2OP(=O)(OCOC(=O)C(C)(C)CC)OC[C@H]2O[C@@H](n3cnc4c(N)ncnc43)[C@H](F)[C@@H]2O1` (single isomer, unassigned) [Compound 57b], in assay [1], the EC50 stood at 18 nM.
Regarding `CC1(C(=O)OCOP2(=O)OC[C@H]3OC[C@@H](n4cnc5c(N)ncnc54)[C@@H]3OP(=O)(OCOC(=O)C3(C)CCCCC3)OC[C@H]3O[C@@H](n4cnc5c(N)ncnc54)[C@H](F)[C@@H]3O2)CCCCC1` (single isomer, unassigned) [Compound 56b], in assay [1], the EC50 was determined as 44 nM.
As for `CCCCCCCC(=O)OCOP1(=O)OC[C@H]2OC[C@@H](n3cnc4c(N)ncnc43)[C@@H]2OP(=O)(OCOC(=O)CCCCCCC)OC[C@H]2O[C@@H](n3cnc4c(N)ncnc43)[C@H](F)[C@@H]2O1` (single isomer, unassigned) [Compound 58d], the EC50 in assay [2] (read-out: PBMC EC50 IFN-α) is 38 nM; in assay [2] (read-out: PBMC EC50 IFN-γ), 16 nM; in assay [2] (read-out: PBMC EC50 TNF-α) it was 37 nM; in assay [1] it was 2 nM.
For `CCCCCCCC(=O)OCOP1(=O)OC[C@H]2OC[C@@H](n3cnc4c(N)ncnc43)[C@@H]2OP(=O)(OCOC(=O)CCCCCCC)OC[C@H]2O[C@@H](n3cnc4c(N)ncnc43)[C@H](F)[C@@H]2O1` (single isomer, unassigned) [Compound 58a], in assay [1], the EC50 was 5 nM.
`CC(C)(C)C(=O)OCOP1(=O)OC[C@H]2OC[C@@H](n3cnc4c(N)ncnc43)[C@@H]2OP(=O)(OCOC(=O)C(C)(C)C)OC[C@H]2O[C@@H](n3cnc4c(N)ncnc43)[C@H](F)[C@@H]2O1` (single isomer, unassigned) [Compound 36c]: in assay [1], the concentration giving a half-maximal response (EC50) was 52 nM.
`CCCCCCCC(=O)OCOP1(=O)OC[C@H]2OC[C@@H](n3cnc4c(N)ncnc43)[C@@H]2OP(=O)(OCOC(=O)CCCCCCC)OC[C@H]2O[C@@H](n3cnc4c(N)ncnc43)[C@H](F)[C@@H]2O1` (single isomer, unassigned) [Compound 58b]: the EC50 in assay [1] stood at 1 nM.
For `CCC(C)(C)C(=O)OCOP1(=O)OC[C@H]2OC[C@@H](n3cnc4c(N)ncnc43)[C@@H]2OP(=O)(OCOC(=O)C(C)(C)CC)OC[C@H]2O[C@@H](n3cnc4c(N)ncnc43)[C@H](F)[C@@H]2O1` (single isomer, unassigned) [Compound 57d], the EC50 was determined as 258 nM in assay [2] (read-out: PBMC EC50 IFN-α), 80 nM in assay [2] (read-out: PBMC EC50 IFN-γ), 206 nM in assay [2] (read-out: PBMC EC50 TNF-α) and 14 nM in assay [1].
For the molecule `Nc1nc2c(ncn2[C@@H]2O[C@@H]3COP(=O)(O)O[C@@H]4[C@H](O)[C@@H](COP(=O)(O)O[C@@H]2[C@@H]3O)O[C@H]4n2cnc3c(N)ncnc32)c(=O)[nH]1` [2′2′-cGAMP, reference compound], the 50% effective concentration (EC50) in assay [1] is 10200 nM.
For `CC(C)(C)C(=O)OCOP1(=O)OC[C@H]2OC[C@@H](n3cnc4c(N)ncnc43)[C@@H]2OP(=O)(OCOC(=O)C(C)(C)C)OC[C@H]2O[C@@H](n3cnc4c(N)ncnc43)[C@H](F)[C@@H]2O1` (single isomer, unassigned) [Compound 36d], the EC50 in assay [2] (read-out: PBMC EC50 IFN-α) came out at 184 nM; in assay [2] (read-out: PBMC EC50 IFN-γ), 115 nM; in assay [2] (read-out: PBMC EC50 TNF-α) it was 326 nM; in assay [1], 28 nM.
On the same counts, the results for `CC1(C(=O)OCOP2(=O)OC[C@H]3OC[C@@H](n4cnc5c(N)ncnc54)[C@@H]3OP(=O)(OCOC(=O)C3(C)CCCCC3)OC[C@H]3O[C@@H](n4cnc5c(N)ncnc54)[C@H](F)[C@@H]3O2)CCCCC1` (single isomer, unassigned) [Compound 56d] are 325 nM, 48 nM, 159 nM and 41 nM.
For the molecule `CC1(C(=O)OCOP2(=O)OC[C@H]3OC[C@@H](n4cnc5c(N)ncnc54)[C@@H]3OP(=O)(OCOC(=O)C3(C)CCCCC3)OC[C@H]3O[C@@H](n4cnc5c(N)ncnc54)[C@H](F)[C@@H]3O2)CCCCC1` (single isomer, unassigned) [Compound 56c], the EC50 in assay [1] was found to be 21 nM.
For `CC1(C(=O)OCOP2(=O)OC[C@H]3OC[C@@H](n4cnc5c(N)ncnc54)[C@@H]3OP(=O)(OCOC(=O)C3(C)CCCCC3)OC[C@H]3O[C@@H](n4cnc5c(N)ncnc54)[C@H](F)[C@@H]3O2)CCCCC1` (single isomer, unassigned) [Compound 56a], the concentration for a half-maximal effect (EC50) in assay [1] was found to be 285 nM.
Turning to `CCC(C)(C)C(=O)OCOP1(=O)OC[C@H]2OC[C@@H](n3cnc4c(N)ncnc43)[C@@H]2OP(=O)(OCOC(=O)C(C)(C)CC)OC[C@H]2O[C@@H](n3cnc4c(N)ncnc43)[C@H](F)[C@@H]2O1` (single isomer, unassigned) [Compound 57c], the EC50 in assay [1] came out at 13 nM.
On the same count and under the same terms, the same measure for `CCC(C)(C)C(=O)OCOP1(=O)OC[C@H]2OC[C@@H](n3cnc4c(N)ncnc43)[C@@H]2OP(=O)(OCOC(=O)C(C)(C)CC)OC[C@H]2O[C@@H](n3cnc4c(N)ncnc43)[C@H](F)[C@@H]2O1` (single isomer, unassigned) [Compound 57a]: 32 nM; for `CC(C)(C)C(=O)OCOP1(=O)OC[C@H]2OC[C@@H](n3cnc4c(N)ncnc43)[C@@H]2OP(=O)(OCOC(=O)C(C)(C)C)OC[C@H]2O[C@@H](n3cnc4c(N)ncnc43)[C@H](F)[C@@H]2O1` (single isomer, unassigned) [Compound 36b]: 77 nM.
